One test concerns activated human T cells. The test is described as follows: Fura-2 calcium imaging in activated human T cells. The test is classed as cell-based. As to conditions: for [Ca^2+]i elevation evoked by readdition of extracellular Ca^2+ ([Ca^2+]SOCE): activated T cells preincubated 30 min with 500 μM Ry or 30 μM Da, p<0.01, n=7. As for the experimental part:
(§1) All studies involving human subjects were performed after approval by UC Davis Institutional Review Board and after all subjects gave written informed consent. Resting CD3^+ human lymphocytes were isolated from the peripheral blood of healthy consented adults using RosetteSep™ human lymphocyte enrichment kit (Stem Cell Tech.) following the manufacturer's instructions. Resting T cells were resuspended at 0.5−1×10^6 cells/ml in […] medium supplemented with 10 mM HEPES, 10% fetal bovine serum, 2% L-glutamine, 2% vitamins solution, 1% RPMI amino acids solution, and 0.01% β-mercaptoethanol and maintained in suspension in 5% CO2 at 37° C. Resting T cells were activated on the day of isolation by incubation with either PHA ([…]) or anti-CD3 antibody coated onto the tissue culture plates and soluble anti-CD28 antibody (5 m/ml; BD Biosciences). Resting T cells were taken for analysis on the day of isolation, whereas activated T cells were tested 4-5 days after activation.
Cell cultures and chemicals were as described in the Example 1. Before experiment, cells were plated on poly-l-lysine-coated glass-bottom clambers and then loaded with 1 μM fura-2/AM and pluronic F-127 for 5 min in modified Tyrode solution containing (in mM): 130 NaCl, 5.6 KCl, 1 MgCl2, 2 CaCl2, 10 HEPES, 10 D-glucose; pH 7.3. After washing, cells were incubated for additional 30 min at 37° C. […] In nominally Ca^2+-free solution, Ca^2+ was omitted.
Fluorescence images were acquired from adherent cells using a SenSys CCD camera (Roper Scientific, Tucson, Ariz.) and a 40× oil immersion Zeiss objective on a Zeiss Axiovert 200 inverted microscope (Thornwood, N.Y.). Lambda DG-4 filter changer (Sutter Instrument, Novato, Calif.) was used for switching between 340 and 380 nm excitation wavelengths. All experiments were performed at room temperature. Solution exchange was performed via a gravity-driven perfusion system. Solution exchange in the recording chamber was completed within 5 s. […] Unless otherwise indicated, in each experiment changes in [Ca^2+]i were recorded from 15-20 cells and then averaged.

A further test relates to resting human T cells. The test is described as follows: Fura-2 calcium imaging in resting human T cells. As to conditions: resting T cells preincubated 30 min with 30 μM Da or 500 μM Ry; CPA then Ca^2+ readdition. Type of test: cell-based. As for the experimental part:
as §1
Cell cultures and chemicals were as described in the Example 1. […]
Fluorescence images were acquired from adherent cells using a SenSys CCD camera (Roper Scientific, Tucson, Ariz.) and a 40× oil immersion Zeiss objective on a Zeiss Axiovert 200 inverted microscope (Thornwood, N.Y.). […] Unless otherwise indicated, in each experiment changes in [Ca^2+]i were recorded from 15-20 cells and then averaged.

Test [1] concerns Jurkat T cells. The test is described as follows: CFSE proliferation assay, Jurkat T cells. Type of test: cell-based, human. As to conditions: 400 μM Ry or 30 μM Da, 72 hours. As for the experimental part: (§2) Cell cultures and chemicals were as described in the Example 1. Proliferation assay—Cell division track assay was conducted using carboxyfluorescein succinimidyl ester (CFSE) proliferation kit (Molecular probes). Stock solution of CFSE (4 mM) was prepared in DMSO. Cells were washed, resuspended in PBS containing 4 μM CFSE at density 1×10^6 cells/ml, and incubated at 37° C. for 10 min. Labeling was quenched by adding 5× volume of RPMI 1640 culture media containing 10% FBS. After washing 3 times with RPMI 1640+10% FBS, cells were placed into FBS-free cell culture media to abolish cell division and kept overnight in 5% CO2 at 37° C. After overnight incubation, the CFSE-labeled cells were pellet down and fraction of them (˜50000) were fixed with 1% paraformaldehyde in PBS and analyzed by flow cytometry to establish the CFSE fluorescence profile of undivided cells. […] Fluorescence intensity was measured at 488 nm using FACScan flow cytometer and CellQuest software (Becton Dickinson Bioscience, Mountain View, Calif.). The number of cell divisions was calculated using FlowJo software (Tree Star Inc, Ashland, Oreg.). […]
(§3) Freshly isolated CD3^+ resting human T cells or Jurkat T cells were loaded with CFSE and fraction of them was fixed with 1% paraformaldehyde in PBS and analyzed by flow cytometry to establish the CFSE fluorescence profile of undivided cells (time 0). […]

A further test concerns human T cells. The test is described as follows: CFSE proliferation assay, human T cells activated with anti-CD3/CD28 Ab. Type of test: cell-based. Conditions: 400 μM Ry or 30 μM Da; anti-CD3/CD28 Ab activation. As for the experimental part: as §2, §3
The subject of test [2] is Jurkat T cells. The test is described as follows: IL-2 production assay (ELISA), PHA-stimulated Jurkat T cells. The test is classed as cell-based, human. As to conditions: Ry 400 μM or Da 30 μM applied 30 min prior to PHA, 24 hours, p<0.01, n=6. As for the experimental part:
Jurkat T cells were washed 3 timed with PBS and resuspended in FBS-free cell culture media at density 0.8×10^6 cells/ml and seeded into 96 well tissue culture plate (0.4 ml per well) and then stimulated with […] mitogenic lectin phytohaemagglutinin P (PHA). Some cells were pre-incubated for 30 min at 37° C. with, Ry (400 μM), or dantrolene (30 μM) prior to stimulation with PHA. After 24 hours of incubation, cells culture supernatants were collected and contents of IL-2 was determined by ELISA using Quantikine kits (R&D systems, Minneapolis, Minn.) according to manufacturer instructions.
A general note: ELISA stands for enzyme-linked immunosorbent assay.

For test [3], the system named is murine T cell. Conditions: cited from earlier work.
For test [4], the system named is murine T cell. Conditions: murine T cells; cited from earlier work.
Test [5] concerns Jurkat T cells. The test is described as follows: Fura-2 calcium imaging in Jurkat T cells. The test is classed as cell-based, human. As for the experimental part: Cell cultures and chemicals were as described in the Example 1. Before experiment, cells were plated on poly-l-lysine-coated glass-bottom clambers and then loaded with 1 μM fura-2/AM and pluronic F-127 for 5 min in modified Tyrode solution containing (in mM): 130 NaCl, 5.6 KCl, 1 MgCl2, 2 CaCl2, 10 HEPES, 10 D-glucose; pH 7.3. After washing, cells were incubated for additional 30 min at 37° C. Some cells were incubated in Modified Tyrode solution containing 400 μM Ry, 30 μM dantrolene, or vehicles (methanol or, ethanol, or DMSO) alone for 30 min at 37° C. In nominally Ca^2+-free solution, Ca^2+ was omitted.
Fluorescence images were acquired from adherent cells using a SenSys CCD camera (Roper Scientific, Tucson, Ariz.) and a 40× oil immersion Zeiss objective on a Zeiss Axiovert 200 inverted microscope (Thornwood, N.Y.). Lambda DG-4 filter changer (Sutter Instrument, Novato, Calif.) was used for switching between 340 and 380 nm excitation wavelengths. All experiments were performed at room temperature. Solution exchange was performed via a gravity-driven perfusion system. Solution exchange in the recording chamber was completed within 5 s. The vehicles-containing solutions (methanol or DMSO) were applied in place of the drugs in all control experiments. Data acquisition was performed using MetaFluor v7.0 software (Universal Imaging, Downingtown, Pa.). [Ca^2+]i values were estimated from fura-2 calibration as described previously (Grynkiewicz, G., Poenie, M., and Tsien, R. Y. (1985) J Biol Chem 260(6), 3440-3450). Kd was taken as 248 nM (Fanger, C. M., Neben, A. L., and Cahalan, M. D. (2000) J Immunol 164(3), 1153-1160). Unless otherwise indicated, in each experiment changes in [Ca^2+]i were recorded from 15-20 cells and then averaged.

Test [6] relates to Jurkat T cells. The test is described as follows: Manganese quench of fura-2 fluorescence (divalent cation influx via SOC channels). The test is classed as cell-based, human. Conditions: Jurkat T cells preincubated 30 min with 400 μM Ry; with or without 30 μM CPA; n=5. The source says: Because Mn^2+ readily passes through SOC channels (Missiaen, L., Declerck, I., Droogmans, G., Plessers, L., De Smedt, H., Raeymaekers, L., and Casteels, R. (1990) J Physiol 427, 171-186) and is unlikely to be transported from the cytosol (Chiesi, M., and Inesi, G. (1980) Biochemistry 19(13), 2912-2918; Chiesi, M., and Inesi, G. (1981) Arch Biochem Biophys 208(2), 586-592), the rate of fura-2 quenching in the presence of Mn^2+ was used as a measure of divalent cation influx into the bulk cytoplasm in intact cells. The extracellular solution used in all Mn^2+ quench experiments contained (in mM): 130 NaCl, 5.6 KCl, 1 MgCl2, 0.3 CaCl2, 0.5 MnCl2, 10 HEPES, 10 D-glucose; pH 7.3. Changes in Ca^2+-independent fluorescence due to Mn^2+ quench were determined using method described by Zhou & Neher (Zhou, Z., and Neher, E. (1993) J Physiol 469, 245-273). Briefly, background corrected fura-2 fluorescence excited at 340 nm (F340) was plotted against background corrected fura-2 fluorescence excited at 380 nm (F380) during the initial 10 seconds following application of 30 μM cyclopiazonic acid (CPA). The slope of the F340 versus F380 relationship equals the ‘isocoefficient’ α. The fluorescence value, Fi, which is unaffected by changes in [Ca^2+]i, was determined as: […]. […]

As to `Cn1c(=O)c2c(ncn2C)n(C)c1=O` [caffeine], the “Ca^2+ liberation from the ryanodine-sensitive store” value in the test on activated human T cells (caffeine 20 mM, activated human T cells, normal Tyrode solution) is recorded as “produced Ca^2+ liberation”.

With `O=C1CN(N=Cc2ccc(-c3ccc([N+](=O)[O-])cc3)o2)C(=O)N1` [dantrolene, 1-[[[5-(4-nitrophenyl)-2-furanyl]methylene]amino]-2,4-imidaz olidinedione], the “time courses of changes in [Ca^2+]i” value in the test with resting human T cells is “did not affect”. Further, in the test on activated human T cells, the “[Ca^2+]i elevation evoked by readdition of extracellular Ca^2+ ([Ca^2+]SOCE)” value is “reduced”. In addition, the “Jurkat T cell proliferation (CFSE fluorescence profile)” value with Jurkat T cells [1] was “inhibit”. Further, the “normal human activated T cell proliferation (CFSE fluorescence profile)” value in the test with human T cells was “inhibit”. Further, in the test with Jurkat T cells [2], the “PHA-induced IL-2 production” value is listed as “significantly inhibited”. In addition, the “murine T cell proliferation following TCR stimulation” value with murine T cell [3] is recorded as “inhibit”. Moreover, the “IL-2 production following TCR stimulation” value in the test on murine T cell [4] is listed as “inhibit”.

In the case of `N.N.N.N.N.N.N.N.N.N.N.N.N.N.[Cl-].[Cl-].[Cl-].[Cl-].[Cl-].[Cl-].[O-2].[O-2].[Ru+3].[Ru+3].[Ru+4]` [ruthenium red], the “murine T cell proliferation following TCR stimulation” value in the test on murine T cell [3] is listed as “inhibit”. In addition, in the test on murine T cell [4], the “IL-2 production following TCR stimulation” value is on record as “inhibit”.

For the compound ryanodine, in the test on Jurkat T cells [5] (Jurkat T cells preincubated with 400 μM Ry), the “PHA-induced [Ca^2+]i transients in the absence of extracellular Ca^2+” value is “did not significantly affect”. Also, in the test with Jurkat T cells [5] (Jurkat T cells preincubated with 400 μM Ry, 30 μM CPA), the “CPA-induced [Ca^2+]i transients following PHA in the absence of extracellular Ca^2+” value is reported as “did not significantly affect”. The “reduction of maximal amplitudes of [Ca^2+]i transients during Ca^2+ readdition following TCR stimulation” value in the test with Jurkat T cells [5] (Jurkat T cells preincubated with 400 μM Ry, PHA then 0.5 mM Ca^2+ readdition) is reported as 42%. In the test with Jurkat T cells [5] (Jurkat T cells preincubated with Ry, 2 mM Ca^2+ readdition after CPA, p<0.01, n=6), the “[Ca^2+]i transients evoked by Ca^2+ readdition ([Ca^2+]SOCE)” value was “significantly downregulated”. Besides, the “store refilling (CPA2/CPA1 ratio)” value in the test with Jurkat T cells [5] (Jurkat T cells preincubated with Ry, p<0.01, n=6) is given as “facilitated store refilling”. In addition, the “Ca^2+ release on extracellular (acute) application” value in the test with Jurkat T cells [5] (Ry 400 applied in nominally Ca^2+-free extracellular solution, Jurkat T cells, n=5) is reported as “does not induce Ca^2+ release”. In addition, the “divalent cation influx (Mn^2+ quench of fura-2 fluorescence)” value with Jurkat T cells [6] was “does not induce Ca^2+ release (FIG. 2 D) or affect divalent ction influx”. Further, the “time courses of changes in [Ca^2+]i” value in the test on resting human T cells is “did not affect”. In the test with activated human T cells, the “[Ca^2+]i elevation evoked by readdition of extracellular Ca^2+ ([Ca^2+]SOCE)” value is on record as “reduced”. In addition, the “Jurkat T cell proliferation (CFSE fluorescence profile)” value in the test on Jurkat T cells [1] is “inhibit”. The “normal human activated T cell proliferation (CFSE fluorescence profile)” value in the test on human T cells is reported as “inhibit”. Besides, the “PHA-induced IL-2 production” value in the test on Jurkat T cells [2] was “significantly inhibited”.

The values are drawn from patent publication US8664251B1, “Ryanodine receptor inhibitors for treatment of T-cell mediated disorders” (The Regents of the University of California, priority 2009, dated 2014).
